According to patent US7994204B2, “Binding inhibitor of sphingosine-1-phosphate” (Taisho Pharmaceutical Co., Ltd, priority 2006, dated 2011):

Legend:
[1] = molecular target: T1, human Edg-1 (S1P1) (Homo sapiens, UniProt P21453); assay: S1P1 binding inhibition test (membrane, [33P]-S1P); conditions: for inhibition at 10 µM: compound 10 μM, [33P]-S1P 0.1 nM, human Edg-1 (S1P1) HEK-293 membrane fraction, read-out: Binding test (membrane) % inhibition (10 μM); for IC50: membrane system binding test, various concentrations
T1 construct: expressed in transfected cells; host or cells: HEK-293
T1 sequence (P21453 whole entry): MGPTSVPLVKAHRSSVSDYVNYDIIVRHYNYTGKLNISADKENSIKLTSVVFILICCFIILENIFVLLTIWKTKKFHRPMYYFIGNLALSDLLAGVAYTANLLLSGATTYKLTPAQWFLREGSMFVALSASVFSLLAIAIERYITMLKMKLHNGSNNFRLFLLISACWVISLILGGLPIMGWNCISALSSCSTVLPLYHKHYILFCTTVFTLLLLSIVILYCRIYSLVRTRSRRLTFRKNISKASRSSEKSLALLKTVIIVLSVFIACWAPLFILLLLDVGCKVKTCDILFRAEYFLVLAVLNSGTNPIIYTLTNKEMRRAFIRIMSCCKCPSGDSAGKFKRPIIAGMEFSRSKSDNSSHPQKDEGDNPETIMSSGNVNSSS
Experimental: The membrane fraction was obtained by treating the cells with a solubilizing buffer (1 mM Tris/HCl, pH 7.2) for 10 minutes on ice, centrifuging at 1000×g for 5 minutes to remove insoluble fractions, and then centrifuging at 40000×g for 30 minutes at 4° C. The resulting membrane fraction was dissolved in a binding buffer (20 mM Tris-HCl, pH 7.4, 100 mM NaCl, 15 mM NaF, 2 mM deoxypyridoxine, 4 mg/mL fatty acid-free BSA), and then [^33P]-S1P (manufactured by ARC, final concentration 0.1 nM) and a DMSO solution (final concentration of the compound 10^−5 M, final concentration of DMSO 0.1%) of the test compound were added. Thereafter, the mixture was stirred and then treated for one hour at 30° C. Using a harvester, the membrane fraction was harvested onto unifilter-96 GF/C filter (manufactured by Perkin Elmer), washing was carried out four times with the binding buffer, and the filter was dried. Twenty five μL Microscint 0 (manufactured by Perkin Elmer) was added, and radioactivity was measured using Top Count NXT (manufactured by Packard) to calculate the amount (A) of [^33P]-S1P bound to the membrane fraction at the time when the compound was added.
The same procedure was carried out in the absence of the test compound, and the amount (B) of [^33P]-S1P bound was calculated. Further, the same procedure was carried out in the absence of the test compound by use of HEK-293 cells to which no Edg-1 (S1P1) gene was introduced, and the background amount (C) of [^33P]-S1P bound was calculated.
Inhibition rate (%)=[1−(A−C)/(B−C)]×100.
Moreover, the concentration required for a test compound to produce 50% inhibition of the binding caused in the absence of the test compound was also calculated (IC50). The above membrane system binding test was performed in the presence of a test compound at various concentrations to calculate the inhibition rate of Edg-1(S1P1) binding at each concentration according to the above equation, followed by calculating an IC50 value for each compound with data analysis software, Origin (Lightstone Corp., Japan).

| SMILES | melting point [°C] | inhibition at 10 µM [1] [%] | IC50 [1] [nM] | Kd ([1]; human Edg-1 (S1P1) gene transferred HEK-293 membrane fraction) [nM] |
| --- | --- | --- | --- | --- |
| CCc1c(C(C)NS(=O)(=O)c2ccc3c(Cl)cccc3c2)nn(C)c1Oc1ccc(C)cc1 (stereo not shown) [Compound 181] | 154.5 to 155.5 | – | – | – |
| CCn1c(C(C)NS(=O)(=O)c2ccc3c(Cl)cccc3c2)nc(Cl)c1Oc1ccc(C)cc1 (stereo not shown) [Compound 182] | 137.5 to 138.5 | – | – | – |
| CCn1c(C(C)NS(=O)(=O)c2ccc3c(Cl)cccc3c2)cnc1Oc1cccc(N2CCN(C)CC2)c1 (stereo not shown) [Compound 185] | 205.5 to 206 | 100 | 3.7 | – |
| CCn1c(C(C)NS(=O)(=O)c2ccc(Cl)c(Cl)c2)cnc1Oc1ccc(F)cc1 (stereo not shown) [Compound 186] | 156 to 157 | 99.8 | ≤ 70 | – |
| CCn1c(C(C)NS(=O)(=O)c2ccc3c(Cl)cccc3c2)cnc1Oc1ccc(F)cc1 (stereo not shown) [Compound 187] | 138 to 141 | 101 | ≤ 35 | – |
| CCn1c(Oc2ccc(F)cc2)nc(C)c1C(C)NS(=O)(=O)c1ccc(Cl)c(Cl)c1 (stereo not shown) [Compound 188, 3,4-Dichloro-N-{1-[3-ethyl-2-(4-fluorophenoxy)-5-methyl-3H-imidazol-4-yl]-ethyl}-benzenesulfonamide] | 119.5 to 120.5 | 100 | – | – |
| CCn1c(C(C)NS(=O)(=O)c2ccc(Cl)c(Cl)c2)cnc1Oc1cccc(N2CCOCC2)c1 (stereo not shown) [Compound 190] | 167 to 169 | 101 | 10.9 | – |
| CCC(NS(=O)(=O)c1ccc2c(Cl)cccc2c1)c1cnc(Oc2ccc(F)cc2)n1CC (stereo not shown) [Compound 192] | 118 to 120 | 101 | 23 | – |
| CCn1c(C(Cc2ccccc2)NS(=O)(=O)c2ccc(Cl)c(Cl)c2)cnc1Oc1ccc(F)cc1 (stereo not shown) [Compound 193] | 114.5 to 115.5 | 98.6 | – | – |
| CCn1c(C(Cc2ccccc2)NS(=O)(=O)c2ccc3c(Cl)cccc3c2)cnc1Oc1ccc(F)cc1 (stereo not shown) [Compound 194] | 172.5 to 174 | 93 | ≤ 70 | – |
| CCn1c(C(C)NS(=O)(=O)c2ccc(Cl)c(Cl)c2)cnc1Oc1ccc(C)nc1 (stereo not shown) [Compound 195] | 174 to 175 | 96.1 | 20 | – |
| CCn1c(C(Cc2ccc(C)cc2)NS(=O)(=O)c2ccc(Cl)c(Cl)c2)cnc1Oc1ccc(F)cc1 (stereo not shown) [Compound 196] | 123.5 to 124 | 88.9 | – | – |
| CCn1c(C(Cc2ccc(C)cc2)NS(=O)(=O)c2ccc3c(Cl)cccc3c2)cnc1Oc1ccc(F)cc1 (stereo not shown) [Compound 197] | 166 to 167 | 95.3 | – | – |
| CCn1c(C(C)NS(=O)(=O)c2ccc(Cl)c(Cl)c2)cnc1Oc1cccc(N(C)C)c1 (stereo not shown) [Compound 198] | 171 to 172 | 97.8 | 10.3 | – |
| CCn1c(C(Cc2ccc(F)cc2)NS(=O)(=O)c2ccc(Cl)c(Cl)c2)cnc1Oc1ccc(F)cc1 (stereo not shown) [Compound 199] | 145.5 to 146.5 | 97.3 | – | – |
| CCn1c(C(Cc2ccc(F)cc2)NS(=O)(=O)c2ccc3c(Cl)cccc3c2)cnc1Oc1ccc(F)cc1 (stereo not shown) [Compound 200] | 175 to 176 | 97.1 | 17 | – |
| CCn1c(C(NS(=O)(=O)c2ccc(Cl)c(Cl)c2)c2ccccc2)cnc1Oc1ccc(F)cc1 (stereo not shown) [Compound 201] | 157.5 to 158 | – | – | – |
| CCn1c(C(NS(=O)(=O)c2ccc3c(Cl)cccc3c2)c2ccccc2)cnc1Oc1ccc(F)cc1 (stereo not shown) [Compound 202] | 171.5 to 172.5 | 69.3 | – | – |
| CCn1c(C(C)NS(=O)(=O)c2ccc(Cl)c(Cl)c2)cnc1Oc1ccc(OC)cc1 (stereo not shown) [Compound 203] | 146.5 to 148 | 102 | 23.5 | – |
| CCn1c(C(C)NS(=O)(=O)c2ccc(Cl)c(Cl)c2)cnc1Oc1ccccc1 (stereo not shown) [Compound 204] | 166.5 to 167.5 | 95.7 | – | – |
| CCn1c(C(Cc2ccc(Cl)cc2)NS(=O)(=O)c2ccc(Cl)c(Cl)c2)cnc1Oc1ccc(F)cc1 (stereo not shown) [Compound 205] | 155.5 to 156.5 | 94.4 | – | – |
| CCn1c(C(C)NS(=O)(=O)c2ccc(Cl)c(Cl)c2)cnc1Oc1ccc2ccccc2c1 (stereo not shown) [Compound 206] | 172 to 173 | 98.5 | – | – |

| SMILES | melting point [°C] | inhibition at 10 µM [1] [%] | IC50 [1] [nM] | Kd ([1]; human Edg-1 (S1P1) gene transferred HEK-293 membrane fraction) [nM] |
| --- | --- | --- | --- | --- |
| CCn1c(C(C)NS(=O)(=O)c2ccc(Cl)c(Cl)c2)cnc1Oc1cccc(C2CCN(C)CC2)c1 (stereo not shown) [Compound 207] | 161 to 163.5 | 101 | 18.2 | – |
| CCn1c(C(C)NS(=O)(=O)c2ccc(Cl)c(Cl)c2)cnc1Oc1cccc(N2CCCCC2)c1 (stereo not shown) [Compound 208] | 169.5 to 170.5 | 99.6 | ≤ 15 | – |
| CCn1c(C(C)NS(=O)(=O)c2ccc(Cl)c(Cl)c2)cnc1Oc1cccc(-n2ccnc2)c1 (stereo not shown) [Compound 209] | 170 to 171 | 98.9 | 42 | – |
| CCn1c(CNS(=O)(=O)c2ccc(Cl)c(Cl)c2)cnc1Oc1ccc(F)cc1 [Compound 210] | 154 to 155 | 90.6 | – | – |
| CC(NS(=O)(=O)c1ccc(Cl)c(Cl)c1)c1cnc(Oc2ccc(F)cc2)n1C (stereo not shown) [Compound 211] | 179.5 to 180.5 | 92.2 | – | – |
| CC(NS(=O)(=O)c1ccc2c(Cl)cccc2c1)c1cnc(Oc2ccc(F)cc2)n1C (stereo not shown) [Compound 212] | 134 to 135 | 92 | – | – |
| CCn1c(C(C)NS(=O)(=O)c2ccc(Cl)c(Cl)c2)cnc1Oc1ccc2ccncc2c1 (stereo not shown) [Compound 213] | 185.5 to 187.5 | 99.6 | 49 | – |
| CCn1c(C(C)NS(=O)(=O)c2ccc(Cl)c(Cl)c2)cnc1Oc1ccc(OCCN2CCOCC2)cc1 (stereo not shown) [Compound 214] | 167 to 168 | 102 | ≤ 70 | – |
| CCn1c(C(C)NS(=O)(=O)c2ccc(Cl)c(Cl)c2)cnc1Oc1cc(C)nc(C)c1 (stereo not shown) [Compound 215] | 179 to 180 | 100 | – | – |
| CCn1c(C(C)NS(=O)(=O)c2ccc(Cl)c(Cl)c2)cnc1OC1CCCCC1 (stereo not shown) [Compound 216] | 180 to 181 | 92 | – | – |
| CCn1c(C(C)NS(=O)(=O)c2ccc(Cl)c(Cl)c2)cnc1Oc1cc(C(F)(F)F)n(C)n1 (stereo not shown) [Compound 217] | 146 to 148 | 96.3 | – | – |
| CCn1c(C(C)NS(=O)(=O)c2ccc(Cl)c(Cl)c2)cnc1Oc1ccc(C)c(C)c1 (stereo not shown) [Compound 218] | 102.5 to 107.5 | 101 | – | – |
| CCOc1ncc(C(C)NS(=O)(=O)c2ccc(Cl)c(Cl)c2)n1CC (stereo not shown) [Compound 219] | 195 to 196 | 83.2 | – | – |
| CCCCCCC(NS(=O)(=O)c1ccc(Cl)c(Cl)c1)c1cnc(Oc2ccc(F)cc2)n1CC (stereo not shown) [Compound 220] | 79 to 80 | 68.3 | – | – |
| CCn1c(Oc2ccc(F)cc2)nc(-c2ccccc2)c1C(C)NS(=O)(=O)c1ccc(Cl)c(Cl)c1 (stereo not shown) [Compound 227] | 216.5 to 217.5 | – | – | – |
| CCCCCCCCCCCCCCCCCCOc1ncc(C(C)NS(=O)(=O)c2ccc(Cl)c(Cl)c2)n1CC (stereo not shown) [Compound 238] | 117 to 118 | – | – | – |
| CCn1c(C(C)NS(=O)(=O)c2ccc(Cl)c(Cl)c2)cnc1OC (stereo not shown) [Compound 240] | 199 to 200 | – | – | – |
| CCn1c(C(C)NS(=O)(=O)c2ccc(Cl)c(Cl)c2)cnc1Oc1ccc2cc[nH]c2c1 (stereo not shown) [Compound 250, 3,4-Dichloro-N-{1-[3-ethyl-2-(1H-indol-6-yloxy)-3H-imidazol-4-yl]-ethyl}-benzenesulfonamide] | – | 101 | 20.5 | – |
| CCn1c(C(C)NS(=O)(=O)c2ccc(Cl)c(Cl)c2)cnc1OCCCN1CCN(C)CC1 (stereo not shown) [Compound 251] | – | 96.3 | – | – |
| CC[C@@H](NS(=O)(=O)c1ccc(Cl)c(Cl)c1)c1cnc(Oc2ccc(F)cc2)n1CC [Compound 253, (R)-(+)-3,4-Dichloro-N-{1-[3-ethyl-2-(4-fluorophenoxy)-3H-imidazol-4-yl]-propyl}-benzenesulfonamide] | – | 100 | 27.5 | – |
| CC[C@H](NS(=O)(=O)c1ccc(Cl)c(Cl)c1)c1cnc(Oc2ccc(F)cc2)n1CC [Compound 254, (S)-(−)-3,4-Dichloro-N-{1-[3-ethyl-2-(4-fluorophenoxy)-3H-imidazol-4-yl]-propyl}-benzenesulfonamide] | – | 68.6 | – | – |
| CCCCCCCCCCCCC/C=C/[C@@H](O)[C@@H](N)COP(=O)(O)O [[^33P]-S1P, Sphingosine-1-phosphate] | – | – | – | 0.15 |
